We go through two molecules from patent US9708310B2, “Phenanthroindolizidine and phenanthroquinolizidine alkaloid having a hydroxyl group on the phenanthrene ring thereof, preparation method and use thereof” (CHINA MEDICAL UNIVERSITY, priority 2015, dated 2017).

Data set [1] has as its system breast carcinoma (MCF-7) cells. Kind of data set: Cell viability (MTT) assay, MCF-7. In kind it is cell-based, human. On the procedure: (§1) 8. Typical Procedure for Cell Viability Assay
(§2) The breast carcinoma (MCF-7), lung carcinoma (H1299), and prostate carcinoma (DU145) cells were first plated at a density of 5×10^3 cells per well in 96-well plates for overnight and then treated with different concentrations of these compounds. After 48 h of treatment, 100 µL of MTT solution was added to each well and the cells were incubated for 1 h at 37° C. Then, the MTT solution was completely removed and […] of DMSO was added to solubilize the MTT formazan crystals. Finally, the absorbance was measured using a MQX200R microplate reader (BioTek, VT, USA) at a wavelength of 550 nm.

Data set [2] is described as follows: Solubility in the dosing solvent system. As to conditions: 2.5% DMSO, 2.5% EtOH, 5% Cremophor EL, and 90% normal saline.
Data set [3] deals with prostate carcinoma (DU145) cells. Kind of data set: Cell viability (MTT) assay, DU145. In kind it is cell-based, human. On the procedure:
as §1, §2

Data set [4] deals with lung carcinoma (H1299) cells. Kind of data set: Cell viability (MTT) assay, H1299. In kind it is cell-based, human. The protocol:
as §1, §2

The subject of data set [5] is cyclin D1, CDK4, cyclin E, CDK2, cyclin B1, and CDK1. Kind of data set: Western blot of H1299 cell cycle associated protein. In kind it is cell-based, human. As to conditions: H1299 cells, 7, 14, and 21 nM, 12, 24, and 48 h. On the procedure: 9. The Effect of Compound 20 on H1299 Cell Cycle Associated Protein
9.1 Western Blot Analysis
H1299 cells were first seeded at a density of 3×10^5 cells per well in six-well plates overnight and then treated with compound 20 at three different concentrations (7, 14, and 21 nM) for 12, 24, and 48 h. The cells were washed with PBS buffer and lysed in ice-cold RIPA buffer for 30 min. The supernatant was collected and centrifuged at 15,000 rpm at 4° C. for 30 min. The protein concentration was measured with a Bio-Rad assay using a MQX200R microplate reader (BioTek, VT, USA). The cell lysates were separated by 10% SDS-PAGE and electrophoretically transferred onto polyvinylidene difluoride (PVDF) membranes (Millipore, Bedford, Mass.). After several washes, the membranes were blocked with 5% skim milk in TBST (tris-buffered saline containing 0.1% Tween-20) at room temperature for 1 h and incubated with different primary antibodies against cyclin D1, CDK4, cyclin E, CDK2, cyclin B1, and CDK1 (1:2000 dilution) at 4° C. for overnight. […] After washing three times in TBST, the bound antibody was visualized using ECL Western Blotting Reagent (PerkinElmer, Boston), and chemiluminescence was detected using a Fuji Medical X-ray film (Tokyo, Japan).
All the data were expressed as means±SEM for three replicate experiments. […]
Background: In western blotting, separated proteins are transferred to a membrane and probed.

Data set [6] relates to normal human lung fibroblast cell line, MRC-5. Nature of the data set: Cytotoxicity against normal lung fibroblasts MRC-5. As to conditions: MRC5. In kind it is cell-based.
A further data set deals with female athymic nude mice. Kind of data set: Rotarod test for motor coordination (neurotoxicity). In kind it is in vivo. The following applies: i.p., 20 at 10 mg/kg vs 5i at 0.08 mg/kg, 15 administrations, 5 rpm, three consecutive days. An excerpt: 10. Rotarod Test for Motor Coordination
The protocol of rotarod test was based on those described in the literature [Y. Z. Lee, C. W Yang, H. Y. Hsu, Y. Q. Qiu, T. K. Yeh, H. Y. Chang, et al., J. Med. Chem. 2012, 55, 10363-10377] with slight modifications. Eight week-old female athymic nude mice were used. All the animal experiments followed ethical standards, and the protocols have been reviewed and approved by the Animal Care and Use Committee of China Medical University (IACUC approval no: 102-235-N). The mice were randomly divided into two groups (n=3) and treated with compound 20 (10 mg/kg) or 7-methoxycryptopleurine 5i (0.08 mg/kg) intraperitoneally. The compounds were dissolved in a mixture of 2.5% DMSO, 2.5% EtOH, 5% Cremophor EL, and 90% normal saline. Each group was administered once daily, five days per week for 15 times in total. After 15 administrations of the compounds, the mice were placed on the rotarod apparatus for training (day 1) and test (days 2-4) with the rod set in motion at a constant speed of 5 rpm. The latency time to fall from the rotating rod was recorded for a maximum of 180 s.
(In general: The rotarod test checks motor coordination on a turning rod.)

The nature of the next data set: physchem. The following applies: aqueous with cosolvent or surfactant or cyclodextrin.

≈ marks a conversion by molar mass, not a printed value.

What is called IC50 is the concentration needed to halve the response being measured. For the molecule `COc1cc2c3c(c4cc(OC)c(OC)cc4c2cc1OC)CN1CCCCC1C3` (stereo not drawn) [Compound 5i, 7-Methoxycryptopleurine], the IC50 in data set [1] (48 h treatment) turned out to be 10.7 nM; in [3] (48 h treatment), 4.5 nM; in data set [4] (48 h treatment), 7.1 nM. Besides, the “solubility in the solvent system” value in data set [2] is reported as “less than 0.08 mg/mL”.

Broadly, the melting point is the temperature of the solid-liquid transition. The solubility is how much of the substance goes into solution per volume. `COc1cc2c(cc1O)c1c(c3cc(OC)c(OC)cc32)CC2CCCCN2C1` (stereo not drawn) [Compound 20, 7-Hydroxy-2,3,6-trimethoxy-10,11,12,13,13a,14-hexahydro-9H-9a-azabenzo[b]triphenylene] showed a melting point of 114 to 115 °C. This molecule returned an IC50 in data set [1] (Homo sapiens, MCF7, 48 h treatment) of 6.4 nM. The “cell cycle associated protein expression” value in data set [5] is “decrease in cyclin D1-cdk4, cyclin E-cdk2, and cyclin B1-cdk1 expression”. For the same molecule, the half-inhibitory concentration (IC50) in data set [3] (Homo sapiens, DU-145, 48 h treatment) amounted to 4.4 nM. This molecule had an IC50 in data set [4] (Homo sapiens, NCI-H1299, 48 h treatment) of 5.2 nM. In [6], this molecule yielded an IC50 of 26 nM. The “motor coordination (neurotoxicity), rotarod” value in the data set with female athymic nude mice was “better motor coordination than the compound 5i-treated group”. This molecule displayed a solubility in “physchem” of approximately 1300 µg/mL (≈ 3.3 mM).
